Six molecules from publication PMC6337594 (2018) can be followed below.

Test [1] deals with Tel48 (DNA, G4) TTAGGGTTAGGGTTAGGGTTAGGGTTAGGGTTAGGGTTAGGGTTAGGG
The test is described as follows: CD melting. Conditions: 100 mM K+; 10 mM Tris-HCl pH 7.5; compound concentration not stated.

In test [2] the test system is LD12 (DNA, duplex) GCGCAATTGCGC
The test is described as follows: fluorescence enhancement; pre-stained gel. Conditions: 100 mM K+; 15 µM H33258, 15 µM LD12.

In test [3] the test system is CMA (DNA, G4) TAGGGAGGGTAGGGAGGGT
In words: gel mobility shift. Conditions: 100 mM K+; 40 µM CMA, 80 µM compound.

Test [4] deals with biotinylated Tel48 (DNA, G4) TTAGGGTTAGGGTTAGGGTTAGGGTTAGGGTTAGGGTTAGGGTTAGGG
The test is described as follows: bio-layer interferometry, kinetic. Conditions: 100 mM K+; 10 mM Tris, 25 °C; two-site model, Kb = ka/kd; immobilised Tel48.

For test [5], the system named is Tel48 (DNA, G4) TTAGGGTTAGGGTTAGGGTTAGGGTTAGGGTTAGGGTTAGGGTTAGGG
The test is described as follows: CD, ligand-induced G4 formation. Conditions: no K+; Tris buffer, 25 °C; 4 µM Tel48, 8 µM compound.

On to `CN1CCN(c2ccc3nc(-c4ccc5nc(-c6ccc(O)cc6)[nH]c5c4)[nH]c3c2)CC1`, for which the dTm in test [1] is ~ 4 °C. Moreover, in test [2], the binding result is “yes”.
In the case of `C[n+]1ccnc(/C=C/c2ccc3[nH]c4ccc(/C=C/c5c[n+](C)ccn5)cc4c3c2)c1`, the binding result in test [3] is recorded as “yes”. In test [4], this molecule yielded a Kb of 529000 M⁻¹.
In the case of `C[n+]1ccc(-c2c3nc(c(-c4cc[n+](C)cc4)c4ccc([nH]4)c(-c4cc[n+](C)cc4)c4nc(c(-c5cc[n+](C)cc5)c5ccc2[nH]5)C=C4)C=C3)cc1`, in test [1], the dTm was ~ 10 °C. The binding entry in test [3] and in test [5] was “yes” each time. The Kb in test [4] amounted to 1.55e+07 M⁻¹.
On to `NCCOc1cc(C(=O)Nc2cc(OCCN)c3ccccc3n2)nc(C(=O)Nc2cc(OCCN)c3ccccc3n2)c1`, for which the dTm in test [1] was ~ 2 °C. In addition, in test [5], the binding entry is on record as “yes”.
For the molecule `C[n+]1ccccc1/C=C/c1ccc2[nH]c3ccc(/C=C/c4cccc[n+]4C)cc3c2c1`, the binding result in test [3] and in test [5] was “yes” each time. The same molecule yielded a Kb in test [4] of 2.38e+06 M⁻¹.
For `CN(C)c1ccc(Nc2c3ccc(NC(=O)CCN4CCCC4)cc3nc3cc(NC(=O)CCN4CCCC4)ccc23)cc1`, the binding result in test [3] and in test [5] was “yes” throughout. The same molecule came in with a Kb in test [4] of 9.84e+06 M⁻¹.
